Assay results from the supplement of paper PMC7840683.
Where a name gives a salt, the structure may show the parent alone.

System: HepaRG
Assay: LDH release cytotoxicity, % of total lysis control; higher = more cytotoxic
Settings: 48 h
Summary of the method: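 Single-lot HepaRG cells in collagen I-coated 96-well plates were treated for 48 h in serum-free induction medium containing 0.5% DMSO with test chemicals in eight-point half-log series up to 100 µM. For total lysis, wells received 0.1% Triton X. LDH in 50 µL spent medium was assayed by resorufin fluorescence with CytoTox-ONE. Percent cytotoxicity was normalized to the on-plate vehicle and total lysis controls, with duplicates averaged.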

N#Cc1c(Cl)cccc1Cl [Dichlobenil]
Settings	LDH release cytotoxicity [%]
0.03162 µM	0.00697
0.1 µM	-0.347
0.3162278 µM	-1.05
1 µM	-1.65
3.16228 µM	0.43
10 µM	0.582
31.6228 µM	1.87
100 µM	1.99

CC(C)(C)c1ccc(CSc2cnn(C(C)(C)C)c(=O)c2Cl)cc1 [Pyridaben]
Settings	LDH release cytotoxicity [%]
0.03162 µM	-0.363
0.1 µM	-1.38
0.3162278 µM	-1.47
1 µM	-1.89
3.16228 µM	17.6
10 µM	26.6
31.6228 µM	26.9
100 µM	34.6

COP(=O)(NC(C)=O)SC (stereo not drawn) [Acephate]
Settings	LDH release cytotoxicity [%]
0.03162 µM	-0.866
0.1 µM	-0.804
0.3162278 µM	-0.558
1 µM	-0.625
3.16228 µM	-0.512
10 µM	0.394
31.6228 µM	0.786
100 µM	1.92

CC(C)(O)c1coc(S(=O)(=O)NC(=O)Nc2c3c(cc4c2CCC4)CCC3)c1
Settings	LDH release cytotoxicity [%]
0.03162 µM	-0.467
0.1 µM	-0.342
0.3162278 µM	-0.339
1 µM	0.236
3.16228 µM	0.788
10 µM	0.179
31.6228 µM	0.394
100 µM	1.465

Oc1ccc(Cl)cc1Cl [2,4-Dichlorophenol]
Settings	LDH release cytotoxicity [%]
0.03305 µM	-0.867
0.1045 µM	-1.22
0.330458 µM	-1.99
1.045 µM	-1.67
3.30458 µM	-1.98
10.45 µM	-1.68
33.0458 µM	-2.38
104.5 µM	-0.904

CCCN(CCC)C(=O)SCC [EPTC]
Settings	LDH release cytotoxicity [%]
0.03162 µM	0.307
0.1 µM	-0.433
0.3162278 µM	-0.271
1 µM	-0.35
3.16228 µM	-0.208
10 µM	0.499
31.6228 µM	0.312
100 µM	0.622

CNC(=O)Oc1cccc(N=CN(C)C)c1 [Formetanate hydrochloride]
Settings	LDH release cytotoxicity [%]
0.0317809 µM	-8.9
0.1005 µM	-7.63
0.317809 µM	-7.59
1.005 µM	-7.51
3.17809 µM	-6.9
10.05 µM	-5.88
31.7809 µM	-6.15
100.5 µM	-5.62

CCC(C)c1cc([N+](=O)[O-])cc([N+](=O)[O-])c1O (stereo not drawn) [Dinoseb]
Settings	LDH release cytotoxicity [%]
0.03162 µM	-1.28
0.1 µM	0.378
0.3162278 µM	-1.3
1 µM	-1.58
3.16228 µM	-0.982
10 µM	-0.113
31.6228 µM	0.81
100 µM	2.87

CCCCC(CC)COC(=O)CCCCC(=O)OCc1ccccc1 (stereo not drawn) [Benzyloctyl adipate]
Settings	LDH release cytotoxicity [%]
0.03162 µM	-0.155
0.1 µM	-0.43
0.3162278 µM	0.101
1 µM	-0.128
3.16228 µM	1.13
10 µM	0.566
31.6228 µM	0.4
100 µM	1.95

O=C(O)C(F)(F)C(F)(F)C(F)(F)C(F)(F)C(F)(F)C(F)(F)F [Perfluoroheptanoic acid]
Settings	LDH release cytotoxicity [%]
0.03162 µM	-2.26
0.1 µM	-2.63
0.3162278 µM	-3.62
1 µM	-3.63
3.16228 µM	-2.82
10 µM	-2.95
31.6228 µM	-2.44
100 µM	-2.23

Cc1cc(NC(=O)C(=O)O)cc(C)c1Oc1ccc(O)c2c1CCC2
Settings	LDH release cytotoxicity [%]
0.03162 µM	0.0573
0.1 µM	-0.831
0.3162278 µM	-0.658
1 µM	-1.32
3.16228 µM	-1.06
10 µM	-0.633
31.6228 µM	1.17
100 µM	0.214

CCOC(=O)CC(CC(=O)OCC)(OC(C)=O)C(=O)OCC [Acetyltriethyl citrate]
Settings	LDH release cytotoxicity [%]
0.03162 µM	-2.01
0.1 µM	-1.76
0.3162278 µM	-1.48
1 µM	-1.13
3.16228 µM	-0.615
10 µM	-1.09
31.6228 µM	0.655
100 µM	0.942

O=C1CN(N=Cc2ccc([N+](=O)[O-])o2)C(=O)N1 [Nitrofurantoin]
Settings	LDH release cytotoxicity [%]
0.03162 µM	-0.977
0.1 µM	-1.36
0.3162278 µM	-1.01
1 µM	-0.456
3.16228 µM	-1.09
10 µM	-0.861
31.6228 µM	-0.189
100 µM	2.15

C=CCc1ccc(OC)c(OC)c1 [Methyleugenol]
Settings	LDH release cytotoxicity [%]
0.03162 µM	-1.16
0.1 µM	-0.0217
0.3162278 µM	-0.545
1 µM	-0.949
3.16228 µM	-0.679
10 µM	-0.724
31.6228 µM	-0.435
100 µM	0.911

O=C(O)C(Cl)(Cl)Cl [Trichloroacetic acid]
Settings	LDH release cytotoxicity [%]
0.03162 µM	-0.739
0.1 µM	-2.11
0.3162278 µM	-2.765
1 µM	-2.27
3.16228 µM	-2.74
10 µM	-2.07
31.6228 µM	-1.13
100 µM	0.84

c1ccc2ccccc2c1 [Naphthalene]
Settings	LDH release cytotoxicity [%]
0.03162 µM	-0.307
0.1 µM	-1.13
0.3162278 µM	-0.248
1 µM	-0.532
3.16228 µM	0.237
10 µM	1.23
31.6228 µM	0.531
100 µM	2.74

CCCCCC(=O)O [Hexanoic acid]
Settings	LDH release cytotoxicity [%]
0.03162 µM	-2.52
0.1 µM	-1.97
0.3162278 µM	-0.0407
1 µM	-1.44
3.16228 µM	-1.32
10 µM	-1.49
31.6228 µM	-0.358
100 µM	0.23

O=S1OCC2C(CO1)C1(Cl)C(Cl)=C(Cl)C2(Cl)C1(Cl)Cl (stereo not drawn) [Endosulfan]
Settings	LDH release cytotoxicity [%]
0.03162 µM	0.0956
0.1 µM	-0.361
0.3162278 µM	-0.482
1 µM	-0.273
3.16228 µM	-0.151
10 µM	0.616
31.6228 µM	-0.612
100 µM	14.5

CC(=O)OCC=C(C)CCC=C(C)C [Geranyl acetate]
Settings	LDH release cytotoxicity [%]
0.031623 µM	-1.3
0.1 µM	-3.48
0.316228 µM	-4.47
1 µM	-4.04
3.16228 µM	-4.04
10 µM	-3.42
31.6228 µM	-1.98
100 µM	-0.423

O=C(O)CCN(C1(C(=O)NO)CCCC1)S(=O)(=O)c1ccc(Oc2ccc(F)cc2)cc1
Settings	LDH release cytotoxicity [%]
0.03162 µM	-0.305
0.1 µM	-1.01
0.3162278 µM	-0.589
1 µM	-0.176
3.16228 µM	-0.0966
10 µM	0.986
31.6228 µM	0.193
100 µM	1.19

CC(C)(C)C(O)C(=Cc1ccc(Cl)cc1Cl)n1cncn1 (stereo not drawn) [Diniconazole]
Settings	LDH release cytotoxicity [%]
0.03162 µM	-0.57
0.1 µM	-1.77
0.3162278 µM	-0.96
1 µM	-0.38
3.16228 µM	0.433
10 µM	-0.346
31.6228 µM	0.723
100 µM	1.41

c1ccc2[nH]c(-c3cscn3)nc2c1 [Thiabendazole]
Settings	LDH release cytotoxicity [%]
0.03162 µM	-1.05
0.1 µM	-0.974
0.3162278 µM	-1.37
1 µM	-1.6
3.16228 µM	-1.13
10 µM	-0.856
31.6228 µM	0.392
100 µM	5.7

CCc1ccc(CCOc2ccc(CC3SC(=O)NC3=O)cc2)nc1 (stereo not drawn) [Pioglitazone hydrochloride]
Settings	LDH release cytotoxicity [%]
0.03162 µM	-0.765
0.1 µM	-1.11
0.3162278 µM	-1.39
1 µM	-1.98
3.16228 µM	-2.26
10 µM	-3.4
31.6228 µM	-3.94
100 µM	-0.63

CCC(C)(NC(=O)c1cc(Cl)c(C)c(Cl)c1)C(=O)CCl (stereo not drawn) [Zoxamide]
Settings	LDH release cytotoxicity [%]
0.0317809 µM	-0.27
0.1005 µM	-0.966
0.317809 µM	-0.7429
1.005 µM	-1.43
3.17809 µM	-0.947
10.05 µM	-0.343
31.7809 µM	-1.15
100.5 µM	41.9

CC(C)(C)CC(C)(C)c1ccc(O)cc1 [4-(1,1,3,3-Tetramethylbutyl)phenol]
Settings	LDH release cytotoxicity [%]
0.03162 µM	-1.49
0.1 µM	-1.58
0.3162278 µM	-1.966
1 µM	-1.68
3.16228 µM	-1.21
10 µM	-1.69
31.6228 µM	-0.473
100 µM	42.9

Cc1ccc(C(C)C)cc1 [p-Cymene]
Settings	LDH release cytotoxicity [%]
0.01581 µM	-0.487
0.05 µM	-1.9
0.1581139 µM	-3.02
0.5 µM	-2.63
1.5811388 µM	-1.96
5 µM	-2.1
15.8114 µM	-1.51
50 µM	0.041

COC(=O)CCCCC(=O)OC [Dimethyl adipate]
Settings	LDH release cytotoxicity [%]
0.03162 µM	0.892
0.1 µM	-1.11
0.3162278 µM	-1.36
1 µM	-1.52
3.16228 µM	-1.398
10 µM	-1.08
31.6228 µM	-0.702
100 µM	0.485

O=C(OCCCCCCOC(=O)c1ccccc1)c1ccccc1 [Hexane-1,6-diyl dibenzoate]
Settings	LDH release cytotoxicity [%]
0.03162 µM	-2.1
0.1 µM	-1.87
0.3162278 µM	-2.22
1 µM	-2.77
3.16228 µM	-2.28
10 µM	-1.66
31.6228 µM	-1.98
100 µM	-0.594

CN1CCN(Cc2cc(-c3ccc4nc(O)oc4c3)co2)C(c2ccc(F)cc2)C1 (stereo not drawn) [AVE8488]
Settings	LDH release cytotoxicity [%]
0.03162 µM	-0.724
0.1 µM	-1.47
0.3162278 µM	-0.841
1 µM	-0.702
3.16228 µM	-1.52
10 µM	-0.46
31.6228 µM	0.998
100 µM	9.54

C[Si]1(C)O[Si](C)(C)O[Si](C)(C)O[Si](C)(C)O1 [Octamethylcyclotetrasiloxane]
Settings	LDH release cytotoxicity [%]
0.03162 µM	-1.66
0.1 µM	-2.19
0.3162278 µM	-0.981
1 µM	-1.15
3.16228 µM	-1.27
10 µM	-0.835
31.6228 µM	-1.36
100 µM	1.7

CCCCCCOCCO [2-Hexyloxyethanol]
Settings	LDH release cytotoxicity [%]
0.03162 µM	-0.677
0.1 µM	-1.05
0.3162278 µM	-0.605
1 µM	-0.402
3.16228 µM	-1.19
10 µM	0.932
31.6228 µM	0.572
100 µM	47.6
